Assay results published in patent US4120895A, “S-phenenyltris (iminocarbonyl) triisophthalic acid salts” (American Cyanamid Company, priority 1977, dated 1978).
Structures can show the parent of a compound that is named as a salt.

How the values were obtained:
activated human C1 = molecular target: T1, activated human C1 (Homo sapiens, UniProt P09871); test: Test, Code 026 (C1 inhibitor); format: biochemical
T1 construct: fluid-phase human C2 consumption in presence of C4
Text: An active inhibitor protects C2 from C1 and C4; (ii) Test, Code 035 (C3-C9 inhibitor)-This test determines the ability of the late components of human complement (C3-C9) to lyse EAC 142 in the presence of appropriate dilutions of the test compound. An active inhibitor protects EAC 142 from lysis by human C3-C9; (iii) Test, Code 036 (C-Shunt inhibitor) - In this test human erythrocytes rendered fragile are lysed in autologous serum via the shunt pathway activated by cobra venom factor in the presence of appropriate dilutions of the test compound. Inhibition of the shunt pathway results in failure of lysis; (iv) Forssman Vasculitis Test -- Here, the well known complement dependent lesion, Forssman vasculitis, is produced in guinea pigs by intradermal injection of rabbit anti-Forssman antiserum. The lesion is measured in terms of diameter, edema and hemorrhage and the extent to which a combined index of these is inhibited by prior intraperitoneal injection of the test compound at 200 mg/kg is then reported, unless otherwise stated; (v) Forssman Shock Test -- Lethal shock is produced in guinea pigs by an i.v. injection of anti-Forssman antiserum and the harmonic mean death time of treated guinea pigs is compared with that of simultaneous controls; (vi) Complement Level Reduction Test -- In this test, the above dosed guinea pigs, or others, are bled for serum and the complement level is determined in undiluted serum by the capillary tube method of U.S. Pat. No. 3,876,376 and compared to undosed control guinea pigs; and (vii) Cap 50 Test -- Here, appropriate amounts of the test compound are added to a pool of guinea pig serum in vitro, after which the undiluted serum capillary tube assay referred to above is run. The concentration of compound inhibiting 50% is reported.

[1] = test system: Citrated sheep plasma (CSP); test: in vitro anti-coagulant activity (AC); format: biochemical
Method: The sheep RBC's, kept in suspension throughout the clotting incubation time, become enmeshed in the fibrin matrix if a clot forms. Upon centrifugation of the plate, untrapped RBC's form buttons, the sizes of which correspond to the degree of clot inhibition; this providing a measure of anti-coagulant activity (AC). Sodium heparin is used as a positive control and activity is reported in wells appearing in Table I.

T1 sequence (P09871 16-688): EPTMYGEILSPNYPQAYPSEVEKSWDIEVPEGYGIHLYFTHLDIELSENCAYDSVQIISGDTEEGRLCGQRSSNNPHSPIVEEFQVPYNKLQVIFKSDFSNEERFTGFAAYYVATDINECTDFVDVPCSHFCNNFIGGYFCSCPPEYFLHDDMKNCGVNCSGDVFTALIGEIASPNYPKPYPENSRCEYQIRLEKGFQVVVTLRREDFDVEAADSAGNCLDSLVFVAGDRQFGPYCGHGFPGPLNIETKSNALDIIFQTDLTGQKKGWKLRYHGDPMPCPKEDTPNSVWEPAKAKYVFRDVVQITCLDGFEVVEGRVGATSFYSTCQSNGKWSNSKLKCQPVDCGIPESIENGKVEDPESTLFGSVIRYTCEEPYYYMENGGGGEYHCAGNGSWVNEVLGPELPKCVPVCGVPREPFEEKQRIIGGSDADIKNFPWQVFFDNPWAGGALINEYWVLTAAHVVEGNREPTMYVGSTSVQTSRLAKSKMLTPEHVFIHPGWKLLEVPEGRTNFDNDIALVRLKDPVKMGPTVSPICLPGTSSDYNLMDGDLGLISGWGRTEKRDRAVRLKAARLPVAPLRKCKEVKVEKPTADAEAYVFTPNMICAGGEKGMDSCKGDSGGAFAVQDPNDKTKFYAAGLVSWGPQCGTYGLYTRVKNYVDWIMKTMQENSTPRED
T1 sequence (P00736 18-705 partner): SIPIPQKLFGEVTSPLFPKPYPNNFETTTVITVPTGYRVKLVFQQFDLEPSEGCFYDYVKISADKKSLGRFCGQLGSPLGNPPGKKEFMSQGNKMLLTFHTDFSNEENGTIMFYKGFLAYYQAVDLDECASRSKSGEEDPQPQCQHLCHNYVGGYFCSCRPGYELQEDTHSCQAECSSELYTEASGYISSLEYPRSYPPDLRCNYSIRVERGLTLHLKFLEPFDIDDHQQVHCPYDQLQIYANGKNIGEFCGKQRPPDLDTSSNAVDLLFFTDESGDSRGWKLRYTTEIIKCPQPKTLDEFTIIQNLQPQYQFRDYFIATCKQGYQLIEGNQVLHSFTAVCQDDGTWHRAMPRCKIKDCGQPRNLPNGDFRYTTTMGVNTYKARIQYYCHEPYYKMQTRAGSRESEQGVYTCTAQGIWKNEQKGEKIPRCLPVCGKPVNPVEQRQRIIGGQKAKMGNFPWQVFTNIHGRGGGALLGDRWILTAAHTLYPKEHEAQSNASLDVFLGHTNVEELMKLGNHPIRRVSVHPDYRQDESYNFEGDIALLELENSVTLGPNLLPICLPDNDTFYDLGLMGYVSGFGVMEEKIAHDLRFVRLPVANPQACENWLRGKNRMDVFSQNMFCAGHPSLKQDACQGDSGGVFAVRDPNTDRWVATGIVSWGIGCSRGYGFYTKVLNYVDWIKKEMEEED
T1 sequence (P02745 23-245 partner): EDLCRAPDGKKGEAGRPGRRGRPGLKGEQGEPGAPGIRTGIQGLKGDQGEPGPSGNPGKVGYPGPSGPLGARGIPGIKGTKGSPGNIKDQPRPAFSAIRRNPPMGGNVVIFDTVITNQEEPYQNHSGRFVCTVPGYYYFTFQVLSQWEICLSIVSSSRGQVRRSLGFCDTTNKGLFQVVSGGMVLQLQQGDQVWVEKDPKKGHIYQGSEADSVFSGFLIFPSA
T1 sequence (P02746 28-253 partner): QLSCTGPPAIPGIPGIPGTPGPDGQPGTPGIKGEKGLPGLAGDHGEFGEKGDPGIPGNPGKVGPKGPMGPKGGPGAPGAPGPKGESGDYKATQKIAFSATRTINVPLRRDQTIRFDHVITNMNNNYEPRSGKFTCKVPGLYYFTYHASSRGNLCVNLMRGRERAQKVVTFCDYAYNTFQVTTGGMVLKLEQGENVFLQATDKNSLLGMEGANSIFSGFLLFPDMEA
T1 sequence (P02747 29-245 partner): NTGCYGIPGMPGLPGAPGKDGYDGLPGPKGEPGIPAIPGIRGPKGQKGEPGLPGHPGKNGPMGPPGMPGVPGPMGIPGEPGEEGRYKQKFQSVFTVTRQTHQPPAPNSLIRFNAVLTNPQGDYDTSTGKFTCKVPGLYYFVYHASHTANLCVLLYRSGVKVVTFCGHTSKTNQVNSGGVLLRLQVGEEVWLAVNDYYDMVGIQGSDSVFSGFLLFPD

SMILES: O=C(O)c1cc(C(=O)O)cc(C(=O)Nc2cc(NC(=O)c3cc(C(=O)O)cc(C(=O)O)c3)cc(NC(=O)c3cc(C(=O)O)cc(C(=O)O)c3)c2)c1 [5,5',5"-[s-Phenenyltris(iminocarbonyl)]triisophthalic acid hexasodium salt]
- Cl 026 Wells (activated human C1; Table I, two-fold serial dilution assay, higher well number indicates higher activity): +3 Wells
- In Vitro Activity, Complement Inhibiting Activity (Wells) Code 026 (activated human C1; Table II): +3 Wells
- Logarithmic Difference Expressed as Wells (activated human C1; Table II, Code 026 wells minus AC wells (base 2)): +5 Wells
- AC Wells ([1]; Table I, clot inhibition, recalcified citrated sheep plasma with sheep RBC, serial dilutions): < -2 Wells
- In Vitro Activity, Anti-Coagulant Activity (Wells) AC ([1]; Table II): -2 Wells
